Assay results published in PMC7144554, “2-(Arylamino)-6-(trifluoromethyl)nicotinic Acid Derivatives: New HIV-1 RT Dual Inhibitors Active on Viral Replication” (Molecules, 2020).
“And” between values parts separate entries of the source, which are not always exact repeats. Equal entries are not always repeated.

Assays:
[1] = target: T1, A502F RT RNase H function (Human immunodeficiency virus type 1 group M subtype B, UniProt P04585, A1089F); assay: RNase H activity of mutated RT A502F; assay type: biochemical, HIV-1
T1 construct: Amino acid substitutions were introduced into the p66 HIV-1 RT subunit coded in a p6HRT-prot plasmid; made in house; host or cells: Escherichia coli strain M15
Protocol: (§1) Amino acid substitutions were introduced into the p66 HIV-1 RT subunit coded in a p6HRT-prot plasmid using the QuikChange protocol (Agilent Technologies Inc., Santa Clara, CA).
(§2) The RT-associated RNase H activity of wt and mutated HIV RTs was measured as described, in 100 µL reaction volume containing 50 mM Tris HCl pH 7.8, 6 mM MgCl2, 1 mM dithiothreitol (DTT), 80 mM KCl, hybrid RNA/DNA (5’-[…]-3’-Fluorescein, 5’-[…]-3’-Dabcyl), and different amounts of enzymes according to a linear range of dose-response curve—20 ng of wt RT; 50 ng K103N RT; 100 ng V108A RT; 4 ng Y181C RT; 100 ng Q475A RT; 100 ng A502F RT. The reaction mixture was incubated for 1 h at 37 °C, the reaction was stopped by addition of EDTA and products were measured with a Victor 3 (Perkin) at 490/528 nm.

[2] = target: T2, Q475A RT RNase H function (Human immunodeficiency virus type 1 group M subtype B, UniProt P04585, Q1062A); assay: RNase H activity of mutated RT Q475A; assay type: biochemical, HIV-1
T2 construct: Amino acid substitutions were introduced into the p66 HIV-1 RT subunit coded in a p6HRT-prot plasmid; made in house; host or cells: Escherichia coli strain M15
Protocol: as §1, §2

[3] = test system: HIV-1 IIIB strain; assay: Antiviral assay, HIV-1 replication in TZMbl cells (luciferase); assay type: cell-based; details: Human immunodeficiency virus 1, TZM-bl; TZMbl cells, HIV-1 IIIB; read-out: HIV-1 EC50 TZMbl Cells
Protocol: Drug-mediated inhibition of virus-induced cytotoxicity was assayed in TZM-BL cells. […] Serial dilutions of drugs were added immediately after infection. Luciferase activity was measured as reported [67]. Two days after infection, the culture medium was removed from each well and 100 µl of Bright Glo reagent (Promega, Luis Obispo, CA) was added to the cells for measurement of luminescence using a Victor 2 luminometer (Perkin). […] Cell viability in CEM cells was quantified 5 days after infection with the MTT-dye reduction method.

[4] = target: T3, Y181C RT RDDP activity (Human immunodeficiency virus type 1 group M subtype B, UniProt P04585, Y768C); assay: biochemical; set-up: species or system HIV-1
T3 construct: Amino acid substitutions were introduced into the p66 HIV-1 RT subunit coded in a p6HRT-prot plasmid; made in house; host or cells: Escherichia coli strain M15
Protocol: (§4) The HIV-1 RT-associated RDDP activity was measured as described [66]. Briefly, in 25 µL volume containing 60 mM Tris-HCl pH 8.1, 8 mM MgCl2, 60 mM KCl, 13 mM DTT, poly(A)-oligo(dT), 100 µM dTTP, and 6 ng wt RT (or 21 ng K103N RT; 30 ng V108A RT; 1,5 ng Y181C RT; 21 ng Q475A RT; 15 ng A502F RT).

[5] = target: T4, Q475A RT RDDP activity (Human immunodeficiency virus type 1 group M subtype B, UniProt P04585, Q1062A); assay: biochemical; set-up: species or system HIV-1
T4 construct: Amino acid substitutions were introduced into the p66 HIV-1 RT subunit coded in a p6HRT-prot plasmid; made in house; host or cells: Escherichia coli strain M15
Protocol: as §4

[6] = target: T5, V108A RT RDDP activity (Human immunodeficiency virus type 1 group M subtype B, UniProt P04585, V695A); assay: biochemical; set-up: species or system HIV-1
T5 construct: Amino acid substitutions were introduced into the p66 HIV-1 RT subunit coded in a p6HRT-prot plasmid; made in house; host or cells: Escherichia coli strain M15
Protocol: as §4

[7] = target: T6, Y181C RT RNase H function (Human immunodeficiency virus type 1 group M subtype B, UniProt P04585, Y768C); assay: RNase H activity of mutated RT Y181C; assay type: biochemical, HIV-1
T6 construct: Amino acid substitutions were introduced into the p66 HIV-1 RT subunit coded in a p6HRT-prot plasmid; made in house; host or cells: Escherichia coli strain M15
Protocol: as §1, §2

[8] = Cytotoxicity in TZMbl cells; assay type: cell-based; details: human
[9] = test system: TZMbl cells; assay: Cytotoxicity in TZMbl cells; assay type: cell-based; details: highest concentration tested
[10] = Cell viability in CEM cells (MTT); assay type: cell-based; details: human, MTT, 5 days
Protocol: (§3) Drug-mediated inhibition of virus-induced cytotoxicity was assayed in TZM-BL cells. Triplicate wells of 96-well plates containing 1 × 10^4 TZMbl cells were infected with HIV-1 IIIB strain at a multiplicity of infection of 0.1. Serial dilutions of drugs were added immediately after infection. Luciferase activity was measured as reported. Two days after infection, the culture medium was removed from each well and 100 µl of Bright Glo reagent (Promega, Luis Obispo, CA) was added to the cells for measurement of luminescence using a Victor 2 luminometer (Perkin). The 50% effective concentration (EC50) was defined as the concentration that caused a 50% reduction of luciferase activity (relative light units) compared to virus control wells. Cell viability in CEM cells was quantified 5 days after infection with the MTT-dye reduction method.

[11] = test system: CEM cells; assay: Cell viability in CEM cells (MTT); assay type: cell-based; details: highest concentration tested
Protocol: as §3

[12] = target: T7, HIV-1 RT-associated RDDP activity (wt RT) (Human immunodeficiency virus type 1 group M subtype B, UniProt P04585); assay: biochemical
T7 construct: RT is a heterodimeric (p66/p51) multifunctional enzyme; made in house; host or cells: Escherichia coli strain M15
Protocol: p6HRT-prot vector was kindly provided by Dr. Stuart Le Grice Laboratory. Heterodimeric RT was expressed essentially as described [42]. Briefly, Escherichia coli strain M15 containing the p6HRT-prot vector were grown up to an OD600 of 0.7 and induced with isopropyl β-D-1-thiogalactopyranoside (IPTG) 1.7 mM for 4 h. Cell pellets were resuspended in Lysis buffer (50 mM sodium phosphate pH 7.8, 0.5 mg/mL lysozyme), incubated on ice for 20 min, added 0.3 M final NaCl, sonicated and centrifuged at 30,000× g for 1 h. The supernatant was loaded into a Ni^2+-sepharose column pre-equilibrated with loading buffer (50 mM sodium phosphate pH 7.8, 0.3 M NaCl, 10% glycerol, 10 mM imidazole) and washed thoroughly with wash buffer (50 mM sodium phosphate pH 6.0, 0.3 M NaCl, 10% glycerol, 80 mM imidazole). RT was gradient-eluted with elute buffer (wash buffer with 0.5 M imidazole). Fractions were collected, protein purity was checked by SDS-PAGE and found to be higher than 90%. […] Catalytic activities and protein concentration were determined. […]
The HIV-1 RT-associated RDDP activity was measured as described [66]. […]

[13] = target: T8, HIV-1 RT-associated RNase H activity (wt RT) (Human immunodeficiency virus type 1 group M subtype B, UniProt P04585); assay: HIV-1 DNA polymerase-independent RNase H activity, wt RT; assay type: biochemical; details: RNase H IC50, wt RT
T8 construct: RT is a heterodimeric (p66/p51) multifunctional enzyme; made in house; host or cells: Escherichia coli strain M15
Protocol: p6HRT-prot vector was kindly provided by Dr. Stuart Le Grice Laboratory. Heterodimeric RT was expressed essentially as described. Briefly, Escherichia coli strain M15 containing the p6HRT-prot vector were grown up to an OD600 of 0.7 and induced with isopropyl β-D-1-thiogalactopyranoside (IPTG) 1.7 mM for 4 h. Cell pellets were resuspended in Lysis buffer (50 mM sodium phosphate pH 7.8, 0.5 mg/mL lysozyme), incubated on ice for 20 min, added 0.3 M final NaCl, sonicated and centrifuged at 30,000× g for 1 h. The supernatant was loaded into a Ni^2+-sepharose column pre-equilibrated with loading buffer (50 mM sodium phosphate pH 7.8, 0.3 M NaCl, 10% glycerol, 10 mM imidazole) and washed thoroughly with wash buffer (50 mM sodium phosphate pH 6.0, 0.3 M NaCl, 10% glycerol, 80 mM imidazole). RT was gradient-eluted with elute buffer (wash buffer with 0.5 M imidazole). Fractions were collected, protein purity was checked by SDS-PAGE and found to be higher than 90%. RT containing fractions were pooled and diluted 1:1 with dilute buffer (50 mM sodium phosphate pH 7.0, 10% glycerol) then loaded into a Hi-trap Heparine HP GE (Healthcare Lifescience) pre-equilibrated with 10-column volume of loading buffer 2 (50 mM sodium phosphate pH 7.0, 10% glycerol, 150 mM NaCl). Column was then washed with loading buffer 2 and RT was gradient-eluted with elute buffer 2 (50 mM sodium phosphate pH 7.0, 10% glycerol, 150 mM NaCl). Fractions were collected, protein was dialyzed and stored in buffer containing 50 mM Tris HCl pH 7.0, 25 mM NaCl, 1 mM EDTA, 50% glycerol. Catalytic activities and protein concentration were determined. Enzyme-containing fractions were pooled and aliquots were stored at −80 °C.
as §2

[14] = target: T9, V108A RT RNase H function (Human immunodeficiency virus type 1 group M subtype B, UniProt P04585, V695A); assay: RNase H activity of mutated RT V108A; assay type: biochemical, HIV-1
T9 construct: Amino acid substitutions were introduced into the p66 HIV-1 RT subunit coded in a p6HRT-prot plasmid; made in house; host or cells: Escherichia coli strain M15
Protocol: as §1, §2

[15] = target: T10, A502F RT RDDP activity (Human immunodeficiency virus type 1 group M subtype B, UniProt P04585, A1089F); assay: biochemical; set-up: species or system HIV-1
T10 construct: Amino acid substitutions were introduced into the p66 HIV-1 RT subunit coded in a p6HRT-prot plasmid; made in house; host or cells: Escherichia coli strain M15
Protocol: as §4

[16] = target: T11, K103N RT RDDP activity (Human immunodeficiency virus type 1 group M subtype B, UniProt P04585, K690N); assay: biochemical; set-up: species or system HIV-1
T11 construct: Amino acid substitutions were introduced into the p66 HIV-1 RT subunit coded in a p6HRT-prot plasmid; made in house; host or cells: Escherichia coli strain M15
Protocol: as §4

[17] = target: T12, K103N RT RNase H function (Human immunodeficiency virus type 1 group M subtype B, UniProt P04585, K690N); assay: RNase H activity of mutated RT K103N; assay type: biochemical, HIV-1
T12 construct: Amino acid substitutions were introduced into the p66 HIV-1 RT subunit coded in a p6HRT-prot plasmid; made in house; host or cells: Escherichia coli strain M15
Protocol: as §1, §2

With `COc1cc(OC)cc(OC(=O)c2ccc(C(F)(F)F)nc2Nc2cc(Cl)ccc2C)c1` [Compound 21] the IC50 [1] was over 100 µM, the “RNase H IC50” value ([1]; A502F RT) was “completely lost its RNase H inhibitory efficacy” and the “RNase H Fold” value ([1]; A502F RT, vs wt RT) was over 6.8. For the same compound, the IC50 [2] was over 100 µM, the “RNase H IC50” value ([2]; Q475A RT) was “completely lost its RNase H inhibitory efficacy” and the “RNase H Fold” value ([2]; Q475A RT, vs wt RT) was over 6.8. The EC50 [3] was 5 ± 0.8 µM, the IC50 [4] was 22.5 ± 5.3 µM and the IC50 [5] was 17 ± 4.5 µM. It also gave an IC50 [6] of 82.8 ± 6.3 µM, an IC50 [7] of 11.9 ± 1.4 µM and a CC50 [8] of over 50 µM. For the same compound, the “percentage of cells viability in presence of the highest concentration of inhibitor tested, TZMbl” value [9] was 59%, the CC50 at 5 days [10] was over 50 µM and the “percentage of cells viability in presence of the highest concentration of inhibitor tested, CEM cells” value [11] was 100%. The IC50 [12] was 16.1 ± 1.2 µM, the IC50 [13] was 14 µM and 14.7 µM and the IC50 [14] was over 100 µM. The “RNase H IC50” value ([14]; V108A RT) was “completely lost its RNase H inhibitory efficacy”, the IC50 [15] was 8 ± 0.7 µM and the “RDDP Fold” value ([15]; A502F RT, IC50 mutated RT / IC50 wt RT) was 0.5. It also gave an IC50 [16] of 16.5 ± 4.8 µM and an IC50 [17] of 53.9 ± 2.2 µM.
